The test system of the assay is A2780 cells. As to the kind of experiment: In-vitro cell proliferation assay (SRB, 72 hours). To be noted: Homo sapiens, A2780, 72 h, A2780 cells, 72 hours, SRB; read-out: Cell Proliferation (IC50). Format: cell-based.
Consider `CCn1ncc(C(=O)N2CCC3(CC2)CC3CNC(=O)c2cc3ccncc3o2)c1C` (stereo not drawn) [Example 124, N-[[6-(1-ethyl-5-methyl-pyrazole-4-carbonyl)-6-azaspiro[2.5]octan-2-yl]methyl]furo[2,3-c]pyridine-2-carboxamide], for which the IC50 stood at 124 nM. Under `Cc1noc(C)c1C(=O)N1CCC2(CC1)CC2CNC(=O)c1cc2ccncc2o1` (stereo not drawn) [Example 125, N-[[6-(3,5-dimethylisoxazole-4-carbonyl)-6-azaspiro[2.5]octan-2-yl]methyl]furo[2,3-c]pyridine-2-carboxamide] stands 221 nM; under `CCn1cc(C(=O)N2CCC3(CC2)CC3CNC(=O)c2cc3ccncc3o2)cn1` (stereo not drawn) [Example 126, N-[[6-(1-ethylpyrazole-4-carbonyl)-6-azaspiro[2.5]octan-2-yl]methyl]furo[2,3-c]pyridine-2-carboxamide], 833 nM. As to `N#Cc1ccc(C(=O)N2CCC3(CC2)CC3CNC(=O)c2cc3ccncc3o2)cn1` (stereo not drawn) [Example 127, N-[[6-(6-cyanopyridine-3-carbonyl)-6-azaspiro[2.5]octan-2-yl]methyl]furo[2,3-c]pyridine-2-carboxamide], the IC50 came out at 2000 nM. Consider `Cc1nc(C)c(C(=O)N2CCC3(CC2)CC3CNC(=O)c2cc3ccncc3o2)o1` (stereo not drawn) [Example 128, N-[[6-(2,4-dimethyloxazole-5-carbonyl)-6-azaspiro[2.5]octan-2-yl]methyl]furo[2,3-c]pyridine-2-carboxamide], for which the IC50 came to 29.2 nM. Under `O=C(NCC1CC12CCN(C(=O)c1ccnc(N3CCOCC3)c1)CC2)c1cc2ccncc2o1` (stereo not drawn) [Example 129, N-[[6-(2-morpholinopyridine-4-carbonyl)-6-azaspiro[2.5]octan-2-yl]methyl]furo[2,3-c]pyridine-2-carboxamide] stands 37.3 nM. Turning to `Cn1cc(-c2ccno2)c(C(=O)N2CCC3(CC2)CC3CNC(=O)c2cc3ccncc3o2)n1` (stereo not drawn) [Example 132, N-[[6-(4-isoxazol-5-yl-1-methyl-pyrazole-3-carbonyl)-6-azaspiro[2.5]octan-2-yl]methyl]furo[2,3-c]pyridine-2-carboxamide], the IC50 worked out at 7.2 nM.

Take `CC(=O)Nc1cc(C(=O)N2CCC3(CC2)CC3CNC(=O)c2cc3ccncc3o2)ccn1` (stereo not drawn) [Example 133, N-[[6-(2-acetamidopyridine-4-carbonyl)-6-azaspiro[2.5]octan-2-yl]methyl]furo[2,3-c]pyridine-2-carboxamide]: the IC50 is 696 nM.

Consider `O=C(NCC1CC12CCN(C(=O)c1c[nH]nc1-n1cnnn1)CC2)c1cc2ccncc2o1` (stereo not drawn) [Example 134, N-[[6-[3-(tetrazol-1-yl)-1H-pyrazole-4-carbonyl]-6-azaspiro[2.5]octan-2-yl]methyl]furo[2,3-c]pyridine-2-carboxamide], for which the IC50 stood at 514 nM. The value for `CC(=O)Nc1cccc(C(=O)N2CCC3(CC2)CC3CNC(=O)c2cc3ccncc3o2)n1` (stereo not drawn) [Example 135, N-[[6-(6-acetamidopyridine-2-carbonyl)-6-azaspiro[2.5]octan-2-yl]methyl]furo[2,3-c]pyridine-2-carboxamide] was 36.4 nM; that for `CCc1noc(C)c1C(=O)N1CCC2(CC1)CC2CNC(=O)c1cc2ccncc2o1` (stereo not drawn) [Example 136, N-[[6-(3-ethyl-5-methyl-isoxazole-4-carbonyl)-6-azaspiro[2.5]octan-2-yl)methyl]furo[2,3-c]pyridine-2-carboxamide] was 169 nM. The value for `CCn1nc(C)cc1C(=O)N1CCC2(CC1)CC2CNC(=O)c1cc2ccncc2o1` (stereo not drawn) [Example 137, N-[[6-(2-ethyl-5-methyl-pyrazole-3-carbonyl)-6-azaspiro[2.5]octan-2-yl]methyl]furo[2,3-c]pyridine-2-carboxamide] was 116 nM; that for `CCn1cc(C(=O)N2CCC3(CC2)CC3CNC(=O)c2cc3ccncc3o2)c(C)n1` (stereo not drawn) [Example 138, N-[[6-(1-ethyl-3-methyl-pyrazole-4-carbonyl)-6-azaspiro[2.5]octan-2-yl)methyl]furo[2,3-c]pyridine-2-carboxamide] was 2000 nM; that for `Cc1nocc1C(=O)N1CCC2(CC1)CC2CNC(=O)c1cc2ccncc2o1` (stereo not drawn) [Example 139, N-[[6-(3-methylisoxazole-4-carbonyl)-6-azaspiro[2.5]octan-2-yl]methyl]furo[2,3-c]pyridine-2-carboxamide] was 2000 nM. The value for `Cc1ccn(CC(C)C(=O)N2CCC3(CC2)CC3CNC(=O)c2cc3ccncc3o2)n1` (stereo not drawn) [Example 140, N-[[6-[2-methyl-3-(3-methylpyrazol-1-yl)propanoyl]-6-azaspiro[2.5]octan-2-yl]methyl]furo[2,3-c]pyridine-2-carboxamide] was 2000 nM. With `O=C(NCC1CC12CCN(C(=O)c1cn[nH]c1)CC2)c1cc2ccncc2o1` (stereo not drawn) [Example 141, N-[[6-(1H-pyrazole-4-carbonyl)-6-azaspiro[2.5]octan-2-yl]methyl]furo[2,3-c]pyridine-2-carboxamide], the IC50 came out at 2000 nM. The value for `CS(=O)(=O)N1CCC(CC(=O)N2CCC3(CC2)CC3CNC(=O)c2cc3ccncc3o2)CC1` (stereo not drawn) [Example 142, N-[[6-[2-(1-methylsulfonyl-4-piperidyl)acetyl]-6-azaspiro[2.5]octan-2-yl]methyl]furo[2,3-c]pyridine-2-carboxamide] was 97.1 nM; that for `CN1CCOC(C(=O)N2CCC3(CC2)CC3CNC(=O)c2cc3ccncc3o2)C1` (stereo not drawn) [Example 143, N-[[6-(4-methylmorpholine-2-carbonyl)-6-azaspiro[2.5]octan-2-yl]methyl]furo[2,3-c]pyridine-2-carboxamide] was 2000 nM; that for `CC(C)C(=O)N1CC(C(=O)N2CCC3(CC2)CC3CNC(=O)c2cc3ccncc3o2)C1` (stereo not drawn) [Example 144, N-[[6-[1-(2-methylpropanoyl)azetidine-3-carbonyl]-6-azaspiro[2.5]octan-2-yl]methyl]furo[2,3-c]pyridine-2-carboxamide] was 375 nM. With `CC(=O)N1CC(C(=O)N2CCC3(CC2)CC3CNC(=O)c2cc3ccncc3o2)C1` (stereo not drawn) [Example 145, N-[[6-(1-acetylazetidine-3-carbonyl)-6-azaspiro[2.5]octan-2-yl]methyl]furo[2,3-c]pyridine-2-carboxamide], the IC50 amounted to 2000 nM. The value for `O=C(NCC1CC12CCN(C(=O)C1CCN(c3cccnn3)C1)CC2)c1cc2ccncc2o1` (stereo not drawn) [Example 146, N-[[6-(1-pyridazin-3-ylpyrrolidine-3-carbonyl)-6-azaspiro[2.5]octan-2-yl)methyl]furo[2,3-c]pyridine-2-carboxamide] was 74.5 nM; that for `O=C(NCC1CC12CCN(C(=O)CC1CCN(c3ncccn3)CC1)CC2)c1cc2ccncc2o1` (stereo not drawn) [Example 147, N-[[6-[2-(1-pyrimidin-2-yl-4-piperidyl)acetyl]-6-azaspiro[2.5]octan-2-yl]methyl]furo[2,3-c]pyridine-2-carboxamide] was 74.4 nM; that for `CC(C)N1CCC(CC(=O)N2CCC3(CC2)CC3CNC(=O)c2cc3ccncc3o2)CC1` (stereo not drawn) [Example 148, N-[[6-[2-(1-isopropyl-4-piperidyl)acetyl]-6-azaspiro[2.5]octan-2-yl]methyl]furo[2,3-c]pyridine-2-carboxamide] was 102 nM. Under `CN1CCC(CC(=O)N2CCC3(CC2)CC3CNC(=O)c2cc3ccncc3o2)CC1` (stereo not drawn) [Example 149, N-[(6-[2-(1-methyl-4-piperidyl)acetyl]-6-azaspiro[2.5]octan-2-yl]methyl]furo[2,3-c]pyridine-2-carboxamide] stands 496 nM.

Source of the values: patent US10730889B2, “Amido spirocyclic amide and sulfonamide derivatives” (Forma TM, LLC, priority 2012, dated 2020).
